One series relates to Cryptococcus neoformans. Description: Pharmacodynamics in rabbit model of cryptococcal meningitis. Conditions: rabbits; for antifungal effect: CSF. The class given is in vivo. The protocol:
A previously described and well-characterized rabbit model of cryptococcal meningoencephalitis ([32]) was used to further investigate the pharmacodynamics of flubendazole. Male New Zealand White rabbits were purchased from Harlan. Rabbits weighed 2.5 to 3 kg at the time of experimentation. Rabbits were immunosuppressed intramuscularly with hydrocortisone at 10 mg/kg on day −1 relative to infection and then daily throughout the experiment.
Cryptococcal meningoencephalitis was induced with the intracisternal inoculation of 0.25 ml of a suspension containing 3.8 × 10^8 CFU/ml under general anesthesia (induced with medetomidine and ketamine). This inoculum results in progressive infection that manifests as an increase in fungal burden in the CSF and reproducible encephalitis. There was minimal clinical disease with no demonstrable neurological signs in the experimental period. Mortality always occurred in the context of cisternal tapping and repeated anesthesia rather than from progressive infection.
We directly linked plasma concentrations with the antifungal effect.

Series [1] can be described thus: In vitro DMPK: plasma protein binding. Format: in vitro ADME.

On to `COC(=O)Nc1nc2cc(C(=O)c3ccc(F)cc3)ccc2[nH]1` [flubendazole], for which the antifungal effect result with Cryptococcus neoformans (6 mg/kg/day orally) is listed as “no demonstrable antifungal effect”; in the series on Cryptococcus neoformans (22.5 mg/kg q24h orally, few animals), “the effect was small”. For the same molecule, in the series on Cryptococcus neoformans (6 and 22.5 mg/kg q24h, 288 h postinoculation, P = 0.464), the “fungal burden in the cerebrum at the end of the experiment vs other groups” value is reported as “no difference in the fungal burden”. Also, in series [1], the fraction unbound – broadly, the share of the substance not bound to proteins or other matrix – is 0.094.

Values taken from paper PMC5913986, “Repurposing and Reformulation of the Antiparasitic Agent Flubendazole for Treatment of Cryptococcal Meningoencephalitis, a Neglected Fungal Disease” (Antimicrobial Agents and Chemotherapy, 2018).
